These results are taken from patent publication US20240209011A1, “HETEROAROMATIC PHOSPHONIUM SALTS FOR TREATING CANCER” (FLORATEK PHARMA S.A., priority 2021, published 2024).

One experiment has as its system lung carcinoma cell. The experiment can be described thus: Activity against lung carcinoma cells. The format is cell-based. The following applies: lung carcinoma cell growth; text summary of Tables 14A-14C. Here is the method: Antitumor activity of the compounds and doxorubicin as a positive control was assessed by using the CellTiter-Blue Cell Viability Assay (Promega, #G8082) or CellTiter-Glow® Luminescent Cell Viability assay (Promega #G7572) according to the manufacturer's instructions. The compounds were tested at 5 or 6 concentrations in half-log increments (highest concentration 30 μM or 100 μM) in duplicate or triplicate well conditions.
Tumor cells were grown at 37° C. in a humidified atmosphere with 5% CO2 in RPMI 1640 or DMEM medium, supplemented with 10% (v/v) fetal calf serum and 50 μg/ml gentamicin for up to 20 passages, and were passaged once or twice weekly. Cells were harvested using TrypLE or PBS buffer containing 1 mM EDTA, and the percentage of viable cells is determined using a CASY Model TI cell counter (OMNI Life Science). Cells were harvested from exponential phase cultures, counted and plated in 96 well flat-bottom microtiter plates at a cell density depending on the cell line's growth rate (4,000-20,000 cells/well depending on the cell line's growth rate, up to 60,000 for hematological cancer cell lines) in RPMI 1640 or DMEM medium supplemented with 10% (v/v) fetal calf serum and 50 μg/ml gentamicin (140 μl/well). Cultures were incubated at 37° C. and 5% CO2 in a humidified atmosphere. After 24 h, 10 μl of test compounds or control medium were added, and left on the cells for another 72 h. Compounds were serially diluted in DMSO, transferred in cell culture medium, and added to the assay plates. The DMSO concentration was kept constant at <0.3% v/v across the assay plate. Viability of cells was quantified by the CellTiter-Blue® cell viability assay (Promega G8081) or CellTiter-Glow® Luminescent Cell Viability assay (Promega #G7572). Fluorescence (FU) was measured by using the EnSpire® multimode plate reader (Perkin Elmer) (excitation X=570 nm, emission λ=600 nm). Luminescence was measured with a microplate luminometer (Promega or PerkinElmer).
Sigmoidal concentration-response curves were fitted to the data points (test-versus-control, T/C values) obtained for each tumor model using 4 parameter non-linear curve fit (Charles River DRS Datawarehouse Software) or with GraphPad prism 5.02 software. IC50 values are reported as absolute IC50 values, being the concentration of test compound at the intersection of the concentration-response curves with T/C=50% Cell lines tested are presented in Table 1.

Another experiment relates to panel of 30 kinases. The experiment can be described thus: KINOMEscan primary screen. Type of experiment: binding. The settings on record: % Ctrl between 0 and 10 selected for Kd. The method, then: Selected compounds were screened for kinase inhibition using the KINOMEscan™ assay (Eurofins) which is based on a competition binding assay that quantitatively measures the ability of a compound to compete with an immobilized, active-site directed ligand. The assay was performed by combining three components: DNA-tagged kinase; immobilized ligand; and the test compound. The ability of the test compound to compete with the immobilized ligand was measured via quantitative PCR of the DNA tag.
Kinase-tagged T7 phage strains were prepared in an E. coli host derived from the BL21 strain. E. coli were grown to log-phase and infected with T7 phage and incubated with shaking at 32° C. until lysis. The lysates were centrifuged and filtered to remove cell debris. The remaining kinases were produced in HEK-293 cells and subsequently tagged with DNA for qPCR detection. Streptavidin-coated magnetic beads were treated with biotinylated small molecule ligands for 30 minutes at room temperature to generate affinity resins for kinase assays. The liganded beads were blocked with excess biotin and washed with blocking buffer (SeaBlock (Pierce), 1% BSA, 0.05% Tween 20, 1 mM DTT) to remove unbound ligand and to reduce non-specific binding. Binding reactions were assembled by combining kinases, liganded affinity beads, and test compounds in 1× binding buffer (20% SeaBlock, 0.17×PBS, 0.05% Tween 20, 6 mM DTT). Test compounds were prepared as 111× stocks in 100% DMSO. Kds were determined using an 11-point 3-fold compound dilution series with three DMSO control points. All compounds for Kd measurements are distributed by acoustic transfer (non-contact dispensing) in 100% DMSO. The compounds were then diluted directly into the assays such that the final concentration of DMSO was 0.9%. All reactions performed in polypropylene 384-well plate. Each was a final volume of 0.02 ml. The assay plates were incubated at room temperature with shaking for 1 hour and the affinity beads were washed with wash buffer (1×PBS, 0.05% Tween 20). […] The kinase concentration in the eluates was measured by qPCR. […]

A further experiment relates to endometrial PDX. Kind of experiment: Activity against endometrial PDX. Type of experiment: cell-based. The following applies: endometrial PDX growth; text summary of Table 9. The method, then: (§1) PDX-derived cell cultures were obtained from tumors explanted from mice and isolated by mechanical and enzymatic dissociation. […] Cells were harvested and seeded in 96-wells plates at a density of 1.25 to 5×10^3 cells/well for cytotoxicity assays. Cells were incubated 48 h at 37° C. prior to addition of test molecules and vehicle (DMSO, 0.1%) at desired final concentrations. Cell viability was assessed before drugs' addition (To) and 5 days after test molecules addition by measuring ATP cell content using CellTiter-Glo® Luminescent Cell Viability Assay (Promega) according to the manufacturer's instructions. Luciferase activity was measured on a luminometer (PerkinElmer® EnVision™). Each concentration of compounds was tested in triplicate.
(§2) Viability was calculated as a percentage of ATP value compared to vehicle treated controls.
(§3) For PDX primary cell cultures, the tumour tissue was washed with PBS containing antibiotic-antimycotic and non-tumour tissue and necrotic tumour tissues were separated. The tumour tissue was transferred to a new dish and cut into 1-2 mm^3 fragments, resuspended in RPMI-1640 medium and centrifuged at 1,200 rpm for 6 min at room temperature. The pelleted material was resuspended with 15 mL of Tumour Cell Digestion Solution and incubated at 37° C. for 1 hour with agitation. Following further addition of media, centrifugation and passage through a […] cell strainer, the homogenous cell mixture was layered onto 15 mL of Ficoll-Paque PLUS in a 50 mL conical tube and centrifuged for 15 min at 1,600 rpm. The interface cells were collected, washed with media, separated by centrifugation at 1,200 rpm. The cell pellet was resuspended in serum free media supplemented with growth factors. 10,000 cells/wells were plated in a 96 well plate and incubated at 37° C., 5% CO2, 95% air and 100% relative humidity overnight. The cytotoxicity assay was conducted as above. IC50 values represent absolute IC50.

In a further experiment the test system is head and neck PDX. The experiment can be described thus: Activity against head and neck PDX. The following applies: head and neck PDX growth; Table 11. The format is cell-based. Here is the method: as §1, §2, §3
The next experiment relates to pancreatic PDX. The experiment can be described thus: Activity against pancreatic PDX. The settings on record: pancreatic PDX growth; summary of Table 20. Type of experiment: cell-based. Here is the method: as §1, §2, §3

SMILES strings stand for the structures.

For `O=c1cc(-c2ccc(CCCC[P+](c3ccccc3)(c3ccccc3)c3ccccc3)cc2)oc2c(O)c(O)ccc12` [SND118, 4-[4-(7,8-dihydroxy-4-oxo-chromen-2-yl)phenyl]butyltriphenyl-phosphonium bromide], in the experiment on lung carcinoma cell, the IC50 – broadly, the concentration needed to halve the response being measured – is less than 20 µM. The compound also registered a No. responsive kinases in the experiment with panel of 30 kinases of 1.

Take `O=c1cc(-c2ccc(CCCC[P+](c3ccccc3)(c3ccccc3)c3ccccc3)cc2)oc2c3c(ccc12)OCO3.[Br-]` [SND123, 4-[4-(6-oxo-[1,3]dioxolo[4,5-h]chromen-8-yl)phenyl]butyl-triphenylphosphonium bromide]: the IC50 in the experiment on endometrial PDX was less than 20 µM; in the experiment on head and neck PDX, less than 10 µM; in the experiment on lung carcinoma cell it was less than 20 µM; in the experiment with pancreatic PDX it was less than 20 µM. The No. responsive kinases in the experiment on panel of 30 kinases amounted to 4.

Turning to `CCNC(=O)Oc1ccc2c(=O)cc(-c3ccc(CCCC[P+](c4ccccc4)(c4ccccc4)c4ccccc4)cc3)oc2c1OC(=O)NCC.[Br-]` [SND124, 4-[4-[7,8-Bis(ethylcarbamoyloxy)-4-oxo-chromen-2-yl]phenyl]-butyltriphenylphosphonium bromide], the IC50 is less than 20 µM with endometrial PDX; less than 10 µM with head and neck PDX; less than 20 µM in the experiment with lung carcinoma cell; less than 20 µM with pancreatic PDX.

With `CCNC(=O)Oc1ccc2c(=O)cc(-c3ccc(CCCC[P+](c4ccccc4)(c4ccccc4)c4ccccc4)cc3)oc2c1O.[Br-]` [SND126A, 4-[4-[7-(Ethylcarbamoyloxy)-8-hydroxy-4-oxo-chromen-2-yl]phenyl]butyltriphenylphosphonium bromide], the IC50 in the experiment on endometrial PDX was less than 20 µM; with head and neck PDX, less than 10 µM; in the experiment with pancreatic PDX, less than 20 µM.

The compound `CC(C)NC(=O)Oc1ccc2c(=O)cc(-c3ccc(CCCC[P+](c4ccccc4)(c4ccccc4)c4ccccc4)cc3)oc2c1O` [SND127, 4-[4-[7-(Isopropylcarbamoyloxy)-8-hydroxy-4-oxo-chromen-2-yl]phenyl]butyltriphenylphosphonium bromide] yielded an IC50 with lung carcinoma cell of less than 20 µM.

For the compound `COc1c(O)ccc2c(=O)cc(-c3ccc(CCCC[P+](c4ccccc4)(c4ccccc4)c4ccccc4)cc3)oc12.[Br-]` [SND140, (4-(4-(7-hydroxy-8-methoxy-4-oxo-4H-chromen-2-yl)phenyl)butyl)triphenylphosphonium bromide], the IC50 was less than 20 µM in the experiment on endometrial PDX; less than 10 µM in the experiment on head and neck PDX; less than 20 µM in the experiment on lung carcinoma cell; less than 20 µM in the experiment with pancreatic PDX. Besides, the No. responsive kinases with panel of 30 kinases worked out at 4.
